Test in data set [1]: not given
The source holds these as a separate data set.

Test in data set [2]: not given
This is another data set of the same source.

In data set [3] the test system is U87MG cells. Put plainly: Intracellular ROS generation, CellROX Deep Red, flow cytometry. Format: cell-based, human. The following applies: 15 μM, 24 h, green light 515 nm, 13.1 J cm–2, normoxia, n = 2. The protocol:
Figure 3 Light activation mechanism in cells treated with Ru-peptide conjugates. (a) Emission intensity of cells treated with Ru-p(HH), Ru-p(MH), or Ru-p(MM) (15 μM, 24 h) and irradiated with green light (520 nm, 13.1 J cm^–2) for different times: 0–1200 s, as determined by flow cytometry using a PC5.5 filter (ex/em = 488/650 ± 50 nm). (b) Intracellular ROS generation assay in normoxic (N) and hypoxic (H) U87MG cells according to FACS analysis using nonselective ROS probe CellROX Deep Red Reagent, after treatment with Ru-p(HH), Ru-p(MH), Ru-p(MM), cisplatin, Rose Bengal, or [Ru(Ph2phen)2Cl2] (labeled as Ru-Cl2) (15 μM, 24 h), in the dark and after light irradiation (515 nm, 13.1 J cm^–2). tBHP (250 μM, 1 h) was used as a positive control for ROS generation. Error bars: SEM, n = 2. (c) Slopes of the UV–vis absorption of AMDA (for ^1O2, blue bars) or emission intensity of DHE (for O2^•–, red bars) vs irradiation time (see Figures S26–S28) after being incubated with Ru-p(HH), Ru-p(MH), Ru-p(MM), Ru-Cl2, or Rose Bengal (20 μM) and irradiated with green light in Opti-MEM solution. (d) Percentage of alive (−/−), early apoptotic (−/+), late apoptotic (+/+) and necrotic (+/−) U87MG cells costained with Apopxin Deep Red Indicator and Nuclear Green DCS1 as quantified by flow cytometry, after treatment with Ru-p(HH), Ru-p(MH), Ru-p(MM), cisplatin or Rose Bengal in the dark (D) and after light irradiation (L, DLI = 24 h, 515 nm, 13.1 J cm^–2); drug concentration: 20 μM, DLI = 24 h).
Second, CellROX Deep Red, a nonspecific molecular probe for ROS formation, was used to quantify the photodynamic behaviors by each of the three complexes in U87MG cells,.[22] […]
The generation of ROS (reactive oxygen species) in U87MG cells was measured using a ROS deep red fluorescence indicator (Abcam, ab186029). […] The levels of intracellular ROS were then determined using a CytoFLEX flow cytometer using the APC-A (638 nm excitation, 660/10 nm emission) channel. […]

For data set [4], the system named is U87MG cells. Briefly: 2D cytotoxicity assay, SRB end point, dark vs green light. It is filed as cell-based, human. The following applies: normoxia (21% O2); for EC50: SRB at 96 h. The method, then: To test the in vitro phototoxicity of the three complexes toward 2D monolayer U87MG cells, a cell viability assay was undertaken as follows: the cells were seeded at t = 0, treated at t = 24 h, irradiated with green light (520 nm, 13.1 J cm^–2) at t = 48 h without refreshing the medium (drug-to-light interval = 24 h), further incubated in the dark for 48 h, and counted at t = 96 h with a sulforhodamine B (SRB) cell quantification end point assay.[45] Half-maximal effective concentrations (EC50 in μM), compared to untreated control, and photoindex (PI) values, defined as EC50,dark/ EC50,light, were calculated to characterize the toxicity and light activation of each Ru-peptide conjugate. […] However, a much stronger discrepancy appeared in the 2D toxicity data in hypoxic conditions (Table 2, Figure S22b). The phototherapeutic properties of Ru-p(HH) in the green light group were the poorest, leading to a PI of only 1.3. […] Ru-p(MH) stood somewhere between these values with a PI of 1.9 under hypoxia. […] The loss of activity of Ru-p(HH) under hypoxia is consistent with the hypothesis of a PDT pathway, while Ru-p(MM) keeping appreciable phototoxicity under hypoxia better fits the hypothesis of a PACT cell-killing mechanism.
U87MG cells (6000) were seeded in 96-well plates (Sarstedt, 83.3924), and each well contained 100 μL of Opti-MEM (Gibco complete medium 11058-021, supplemented with 2.5% v/v fetal calf serum (FCS), 0.2% v/v penicillin/streptomycin (P/S), and 1% v/v glutamine). They were then placed either in a normoxic (21% O2) or hypoxic (1.0% O2) incubator; 24 h later, different concentrations of Ru-p(HH), Ru-p(MH), or Ru-p(MM) dissolved in Opti-MEM (100 μL) were added to the wells in triplicate. For each complex, one dark and one light plate were involved. Each plate was further incubated in the dark for 24 h (DLI). After that, one plate was irradiated with green light (520 nm) for 20 min at 37 °C for normoxia (dose = 13.1 J cm^–2) or 30 min for hypoxia (dose = 13.0 J cm^–2), while the other plate was kept in the dark. The cells were further incubated for another 2 days in normoxic or hypoxic conditions, respectively. Finally, 100 μL of cold trichloroacetic acid (10% w/v) was added to each well to fix the cells, and all plates were then transferred to a 4 °C refrigerator for 48 h before an SRB cell quantification end point assay was performed.[45] All experiments were conducted in biologically independent triplicate.
Hypoxic cell models in vitro: all cells were incubated and passaged in a dark hypoxic incubator (1% O2) for at least 2 weeks before all hypoxia studies. Adding chemicals to the cells had to be performed in air; however, the cell-growing medium was kept in the hypoxia incubator for at least 2 days before the addition to hypoxic cells, and all hypoxic light irradiations were performed inside the hypoxic incubator set at 1.0% O2.

The conditions of data set [5]: reference value; cited from earlier work. From the text: Table 1 Photochemical Data for Ru-Peptide Conjugates | column: complex

These results are taken from publication PMC11672551, “Cyclic Ruthenium-Peptide Prodrugs Penetrate the Blood–Brain Barrier and Attack Glioblastoma upon Light Activation in Orthotopic Zebrafish Tumor Models” (ACS Central Science, 2024).

Like-named read-outs stand apart in the source and are kept apart here.

As for Ac-MRGDH-NH2, the relative emission intensity compared to Ru-p(HH) amounted to 2%. The molecule further registered a λmax in data set [1] of 465 nm. In data set [2], this molecule gave a λem of 700 nm.

As for `N.N.[Cl][Pt][Cl]` [cisplatin], in the data set on U87MG cells [3], the “intracellular ROS production, normoxia” value was “barely showed any ROS formation”.

For [Ru(Ph2phen)2Cl2], the “intracellular ROS production, normoxia” value in the data set on U87MG cells [3] is “able to generate ROS in cells”. Besides, the “PI, photoindex EC50,dark/EC50,light” value with U87MG cells [4] came to 7.2. For the same molecule, the EC50 (usually the midpoint of the concentration-response curve) with U87MG cells [4] (520 nm, 10.9 mW cm–2, 13.1 J cm–2, 20 min, DLI 24 h, n = 3, read-out: EC50, green light) was 0.2 µM; with U87MG cells [4] (light dose 0, 24 h treatment, no wash, n = 3, read-out: EC50, dark), 1.43 µM.

In the case of `[Cl][Ru][Cl].c1ccc(-c2ccccn2)nc1.c1ccc(-c2ccccn2)nc1.c1ccc(-c2ccccn2)nc1` [[Ru(bpy)3]Cl2], the “ΦΔ ref, singlet oxygen quantum yield of the reference” value in data set [5] is 73%.

Turning to `O=C([O-])c1c(Cl)c(Cl)c(Cl)c(Cl)c1-c1c2cc(I)c(=O)c(I)c-2oc2c(I)c([O-])c(I)cc12.[Na+].[Na+]` [Rose Bengal], the “intracellular ROS production, normoxia” value in the data set on U87MG cells [3] is on record as “high amount of ROS”.

Ac-MRGDM-NH2 registered a relative emission intensity compared to Ru-p(HH) of 0.2%. The same molecule came in with a λmax in data set [1] of 400 nm. For the same molecule, the λem in data set [2] was 700 nm.

In data set [1], Ac-HRGDH-NH2 had a λmax of 500 nm. In data set [2], this molecule showed a λem of 658 nm.
